In US5371186A, “Synthetic peptides for detoxification of bacterial endotoxins and for the prevention and treatment of septic shock” (priority 1992, dated 1994):
Bridge positions count the residues as written; N and C are the ends. Ends that are not written are not given here. Peptide text beside a SMILES is read from it. * marks the point of attachment. Biotin = O=C1N[C@H]2[C@H](CS[C@H]2CCCCC(=O)*)N1

Columns and labels:
trypsin in human serum = experiment: stability towards proteolysis by trypsin in human serum; type: in vitro ADME
Experimental: (§1) The effects of trypsin present in human serum on Polymyxin "B" and the peptides of invention was determined by combining 10 μl of human serum with 20 μg of the given peptide in 10 μl volume and holding the mixture at a temperature of 37° C. for different intervals of time. At various times, an aliquot of the mixture was processed by HPLC analysis in order to detect the residual amount of the investigated peptide. In Table VI the half-lives time of each peptide investigated are shown as compared to the half-life time of Polymyxin "B".

trypsin = experiment: as above; type: in vitro ADME; conditions: human serum, 37° C., 180 mins; read-out: AMOUNT RECOVERED % after 180 mins
Experimental: as §1

[1] = prevention of endotoxin-induced death in CD1 mice sensitized with Actinomycin D; type: in vivo, mice (Strain CD1); conditions: 0.1 mg/mouse i.v., 1 μg endotoxin i.p.; for Mice surviving: 20 mice per group
Experimental: Prevention of endotoxin-induced death in mice, has been achieved by intravenous injection of the peptides of the invention. For this experiment, a strain of mice highly sensitive to the lethal activity of bacterial endotoxin has been used. Mice sensitized with Actinomycin D (Strain CD1) show a high sensitivity to extremely low doses of endotoxin. A dose as low as 1 μg of endotoxin per mouse (about 40 μg/kg of body weight) is able to completely kill a population of mice within 24-48 hours.
Groups of 20 mice CD1 have been treated intravenously with the peptides of the invention, with a single dose of 0.1 mg peptide, solubilized in sterile saline, per mouse. Thirty minutes later, mice were challenged by intraperitoneal injection of 1 μg of endotoxin purified from E. Coli strain 055-B5. Surviving mice were recorded every 24 hours during a seven days-period of observation. […] Negative controls received an intravenous injection of saline.
There were 20 mice per group. Mice surviving at each of the seven 24 hours observation periods are listed. The % survival appears in parenthesis. P expresses the level of statistical significance calculated by "t-Test" for each molecule compared to the treatment with saline, considering the total survival rate in each group.

Avidin = Avidin (Gallus gallus, UniProt P02701); conditions: cited from earlier work
Avidin, sequence (P02701 25-152, species assumed): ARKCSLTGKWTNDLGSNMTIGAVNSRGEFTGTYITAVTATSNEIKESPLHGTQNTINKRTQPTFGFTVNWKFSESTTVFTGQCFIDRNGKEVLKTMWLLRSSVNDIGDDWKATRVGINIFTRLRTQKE

Compound	Half-Life Time (t/2) (trypsin in human serum; human serum, 37° C.)	remaining at 3 h, 1 mg/mL (trypsin)	further results
CC[C@H](C)[C@H](NC(=O)CCCC[C@@H]1SC[C@@H]2NC(=O)N[C@@H]21)C(=O)N[C@@H](CCCCN)C(=O)N[C@H](C(=O)N[C@@H](CCCCN)C(=O)N[C@H]1CSSC[C@@H](C(=O)O)NC(=O)[C@H](CCCCN)NC(=O)[C@H](CCCCN)NC(=O)[C@H](CC(C)C)NC(=O)[C@H](Cc2ccccc2)NC(=O)[C@H](CCCCN)NC1=O)[C@@H](C)O [labeled Peptide VI] (Biotin-IKTKCKFLKKC-OH; disulfide 5-11)			Half-Life Time (t/2) (trypsin in human serum; human serum or human whole blood, not significantly different from the unlabeled value): ~1200 min
IKFLKFLKFLK [Peptide VIII]	7 min	0%	
KFLKFLK [Peptide IX]	10 min	0%	
IKTKKFLKKT [Peptide VII]	50 min	28%	
CC(C)C[C@@H]1NC(=O)[C@H](Cc2ccccc2)NC(=O)[C@H](CCCCN)NC(=O)[C@@H](NC(=O)[C@H](CCCCN)NC(=O)[C@@H](NC(=O)[C@@H](N)CCCCN)[C@@H](C)O)CSSC[C@@H](C(=O)O)NC(=O)[C@H](CCCCN)NC(=O)[C@H](CCCCN)NC1=O [Peptide II] (H-KTKCKFLKKC-OH; disulfide 4-10)	50 min	10%	
CC[C@H](C)[C@H](N)C(=O)N[C@@H](CCCCN)C(=O)N[C@H](C(=O)N[C@@H](CCCCN)C(=O)N[C@H]1CSSC[C@@H](C(=O)O)NC(=O)[C@H](CCCCN)NC(=O)[C@H](CCCCN)NC(=O)[C@H](CC(C)C)NC(=O)[C@H](Cc2ccccc2)NC(=O)[C@H](CCCCN)NC1=O)[C@@H](C)O [Peptide VI] (H-IKTKCKFLKKC-OH; disulfide 5-11)	1,080 min	76%	
RYVRYVRYV [Peptide X]	35 min	0%	
CC(C)C[C@@H]1NC(=O)[C@H](CCCCN)NC(=O)[C@H](CCCCN)NC(=O)[C@@H](N)CSSC[C@@H](C(=O)N[C@@H](CCCCN)C(=O)N[C@H](C(=O)N[C@@H](CCCCN)C(=O)O)[C@@H](C)O)NC(=O)[C@H](CCCCN)NC(=O)[C@H](Cc2ccccc2)NC1=O [Peptide IV] (H-CKKLFKCKTK-OH; disulfide 1-7)	18 min	0%	
CN(C)CCCN1c2ccccc2Sc2ccc(Cl)cc21 [CPZ, Chlorpromazine]			% survival ([1]; 24 hs): 50%; Mice surviving ([1]; 24 hs): 10; % survival ([1]; 48 hs): 50%; Mice surviving ([1]; 48 hs): 10; % survival ([1]; 72 hs): 50%; Mice surviving ([1]; 72 hs): 10; % survival ([1]; 96 hs): 50%; Mice surviving ([1]; 96 hs): 10; % survival ([1]; 120 hs): 50%; Mice surviving ([1]; 120 hs): 10; % survival ([1]; 144 hs): 50%; Mice surviving ([1]; 144 hs): 10; % survival ([1]; 168 hs): 50%; Mice surviving ([1]; 168 hs): 10
CC(C)C[C@@H]1NC(=O)[C@H](CCCCN)NC(=O)[C@H](CCCCN)NC(=O)[C@@H](N)CSSC[C@@H](C(=O)N[C@@H](CCCCN)C(=O)N[C@H](C(=O)O)[C@@H](C)O)NC(=O)[C@H](CCCCN)NC(=O)[C@H](Cc2ccccc2)NC1=O [Peptide V] (H-CKKLFKCKT-OH; disulfide 1-7)	240 min	55%	
CC(C)C[C@@H]1NC(=O)[C@H](Cc2ccccc2)NC(=O)[C@H](CCCCN)NC(=O)[C@@H](N)CSSC[C@@H](C(=O)O)NC(=O)[C@H](CCCCN)NC(=O)[C@H](CCCCN)NC1=O [Peptide I] (H-CKFLKKC-OH; disulfide 1-7)	> 180 min	70%	
O=C(O)CCCC[C@@H]1SC[C@@H]2NC(=O)N[C@@H]21 [Biotin]			K of the reaction with Avidin (Avidin): 10^15
